Consider 16 molecules from patent US20240124455A1, “TRICYCLIC COMPOUNDS AS ANTICANCER AGENTS” (JINGRUI BIOPHARMA CO., LTD., priority 2021, published 2024).

One test addresses T1, BRD4 (BD1) (Homo sapiens, UniProt O60885).
T1 construct: purchased Reaction Biology Company RD-11-157
Nature of the test: BRD4 (BD1) binding assay (HTRF). The settings on record: BRD4 (D1) with GST tag and biotin-labeled acetylated peptide. The method, then: The BRD4 (BD1) biochemical binding assay was carried out by Sundia MediTech Co., Ltd. • Materials and suppliers: • BRD4(D1): Reaction Biology Company; catalog #: RD-11-157; batch #1319 • Positive control compound: AZD5153; Selleck, catalog #, S8344, batch #, 1 • Peptide: GL China; catalog #329934; batch #, P171229-JQ329934 • DMSO: Sigma; catalog #, D8418-1L; batch #, SHBG3288V • OptiPlate-384: PerkinElmer; catalog #6007270, batch #, 8240-17211 • Instruments: • Centrifuge (manufacturer: Eppendorf, model: 5430) • Microplate reader (manufacturer: Perkin Elmer, model: EnVision) • Sonic pipetting system (manufacturer: Labcyte, model: Echo® 550) • In the assay, the HTRF method uses an anti-GST antibody with a cryptate chelate-labeled europium element as the donor, and the d2 or XL665-labeled streptavidin (having high affinity with biotin) as the acceptor to study the interaction between BRD4 (D1) with GST tag and biotin-labeled acetylated peptide. When the donor and acceptor are close to each other due to the binding of BRD4 (D1) to the biotin-labeled peptide, the excitation of the donor triggers fluorescence resonance energy transfer (FRET) to the acceptor, which then emits fluorescence at a specific wavelength (665 nm). • General assay procedure: 20 nL of compound solution was transferred to the 384-well plate by Labcyte Echo® 550 liquid handler, and 5 μL of BRD4 (BD1) solution from Reaction Biology Company, RD-11-157, or the assay buffer was added to each well. After centrifuge for 1 minute and incubating 15 minutes at rt, the 5 μL peptide (GL China, Catalog #329934, Batch, P171229-JQ329934) was added to each well. After centrifuge for 1 minute at 1000 rpm, 10 μL detect solution was added to each well. After incubating for 60 minutes, centrifuging 1 minute, the signals were measured by Microplate reader. Data analysis: The inhibition percentage in the presence of the compound was calculated based on the following formula:
% Inhibition=(Signal_max−Signal sample/Signal_max−Signal_min)×100
Fitting the data in GrphaPad Prism V5.0 software with log(inhibitor) vs. response-Variable slope, the IC50 was obtained.
(TR-FRET usually uses a lanthanide donor and a delayed reading to cut background.)

The next test deals with MV-4-11. As to the kind of experiment: Cell proliferation assay (Cell Titer-Glo). Format: cell-based. The settings on record: MV-4-11 cells, compound treatment 72 h, CellTiter-Glo. Here is the method: In order to evaluate the activity of the compound on cells, the Cell Titer-Glo assay was used for detection. The cells were incubated in a 37° C. incubator and treated with compounds for 72 hours. At the end of the reaction, the number of living cells in the culture is measured by quantitative determination of ATP. ATP is an indicator of the metabolism of living cells. With Cell Titer-Glo, the luminescence signal produced by cell lysis is proportional to the amount of ATP present, and the amount of ATP is directly proportional to the number of cells in the culture. These signal ratios reflect the cell activity of the compound at that concentration in the well under this condition. • (1) Seeding cells • Trypsinize cells and count cell density with the automated cell counter. • Dilute cell suspension to required density according to seeding density. • Seed 100 ul cells into 96-well plate in growth medium according to the plate map. Medium only is used as background control (Min). • Incubate at 37° C., 5% CO2 overnight. • (2) Compound treatment • Make 200× compound solution in DMSO. • Dilute compounds with growth medium to 3× final concentration by addition of 3 ul 200× compounds to 197 ul growth medium. • Add 50 ul diluted compounds to cells and incubate at 37° C., 5% CO2 for 72 h. • (3) Measurement • Equilibrate the assay plate to room temperature prior to measurement. • Add 40 ul of CellTiter-Glo® Reagent into each well. • Mix contents for 2 minutes on an orbital shaker to induce cell lysis. • Incubate at room temperature for 60 minutes to stabilize luminescent signal. • Record luminescence on Envision. • (4) Data analysis • (1) Using GraphPad Prism 5. • (2) % Inh=(Max signal−Compound signal)/(Max signal−Min signal)×100. • (3) Max signal was obtained from the action of DMSO. • (4) Min signal was obtained from the action of medium only.

As to `[2H]C([2H])([2H])c1nnn(C)c1-c1cnc2c3nn(C([2H])([2H])[2H])c(C(C)(C)O)c3n(C(c3ncccc3F)C3CCOCC3)c2c1` (racemic) [Example 22, 2-(4-((3-Fluoropyridin-2-yl)(tetrahydro-2H-pyran-4-yl)methyl)-2-(methyl-d3)-6-(1-methyl-4-(methyl-d3)-1H-1,2,3-triazol-5-yl)-2,4-dihydropyrazolo[3′,4′:4,5]pyrrolo[3,2-b]pyridin-3-yl)propan-2-ol], the figures for the 50% inhibitory concentration (IC50) on BRD4 (BD1) and in the test on MV-4-11 were 0.34 nM and 1.4 nM, respectively.

As to `[2H]C([2H])([2H])c1nnn(C)c1-c1cnc2c3nn(C([2H])([2H])[2H])c(C(C)(C)O)c3n(C(c3ncccc3F)C3CCOCC3)c2c1` (single isomer, unassigned) [Example 23, 2-(4-((3-Fluoropyridin-2-yl)(tetrahydro-2H-pyran-4-yl)methyl)-2-(methyl-d3)-6-(1-methyl-4-(methyl-d3)-1H-1,2,3-triazol-5-yl)-2,4-dihydropyrazolo[3′,4′:4,5]pyrrolo[3,2-b]pyridin-3-yl)propan-2-ol], the IC50 – broadly, the midpoint of a concentration-inhibition curve – was 4.4 nM on BRD4 (BD1) and 66.8 nM in the test with MV-4-11.

In the case of `[2H]C([2H])([2H])n1nc2c3ncc(-c4c(C)nnn4C)cc3n(C(c3ncccc3F)C3CCOCC3)c2c1C(C)(C)O` (racemic) [Example 14, 2-(6-(1,4-Dimethyl-1H-1,2,3-triazol-5-yl)-4-((3-fluoropyridin-2-yl)(tetrahydro-2H-pyran-4-yl)methyl)-2-(methyl-d3)-2,4-dihydropyrazolo[3′,4′:4,5]pyrrolo[3,2-b]pyridin-3-yl)propan-2-ol], the IC50 at BRD4 (BD1) was 0.53 nM; in the test on MV-4-11, 1.77 nM.

Turning to `COC(=O)c1c2c(nn1C)c1ncc(-c3c(C)nnn3C)cc1n2C(c1ncccc1F)C1CCOCC1` (centres unmarked) [Example 9, Methyl 6-(1,4-dimethyl-1H-1,2,3-triazol-5-yl)-4-((3-fluoropyridin-2-yl)(tetrahydro-2H-pyran-4-yl)methyl)-2-methyl-2,4-dihydropyrazolo[3′,4′:4,5]pyrrolo[3,2-b]pyridine-3-carboxylate], the IC50 on BRD4 (BD1) was found to be 0.51 nM; in the test with MV-4-11 (Homo sapiens, MV4-11, 72 h), 1.52 nM.

For `Cc1nnn(C)c1-c1cnc2c3nn(C)c(C(C)(C)O)c3n(C(c3ncccc3F)C3CCOCC3)c2c1` (single isomer, unassigned) [Example 12, 2-(6-(1,4-Dimethyl-1H-1,2,3-triazol-5-yl)-4-((3-fluoropyridin-2-yl)(tetrahydro-2H-pyran-4-yl)methyl)-2-methyl-2,4-dihydropyrazolo[3′,4′:4,5]pyrrolo[3,2-b]pyridin-3-yl)propan-2-ol], the IC50 was 0.19 nM on BRD4 (BD1) and 0.52 nM in the test with MV-4-11.

In the case of `Cc1nnn(C)c1-c1cnc2c3nn(C)c(C(C)(C)O)c3n(C(c3ccccn3)C3CCOCC3)c2c1` (racemic) [Example 6], the IC50 on BRD4 (BD1) was determined as 0.61 nM; in the test on MV-4-11 (Homo sapiens, MV4-11, 72 h), 1.98 nM.

For the molecule `Cc1nnn(C)c1-c1cnc2c3nn(C)c(C(C)(C)O)c3n(C(c3ccccc3)C3CCOCC3)c2c1` (single isomer, unassigned) [Example 4, 2-(6-(1,4-Dimethyl-1H-1,2,3-triazol-5-yl)-2-methyl-4-(phenyl(tetrahydro-2H-pyran-4-yl)methyl)-2,4-dihydropyrazolo[3′,4′:4,5]pyrrolo[3,2-b]pyridin-3-yl)propan-2-ol], the values for the IC50 on BRD4 (BD1) and with MV-4-11 were 0.18 nM and 1.28 nM, respectively.

Turning to `Cc1nnn(C)c1-c1cnc2c3nn(C)c(C(C)(C)O)c3n([C@@H](c3ccccn3)C3CCOCC3)c2c1` [Example 7], the IC50 came out at 8.4 nM on BRD4 (BD1) and 139 nM in the test with MV-4-11 (Homo sapiens, MV4-11, 72 h).

As for `Cc1nnn(C)c1-c1cnc2c3nn(C)c(C(C)(C)O)c3n(C(c3ncccc3F)C3CCOCC3)c2c1` (single isomer, unassigned) [Example 11, 2-(6-(1,4-Dimethyl-1H-1,2,3-triazol-5-yl)-4-((3-fluoropyridin-2-yl)(tetrahydro-2H-pyran-4-yl)methyl)-2-methyl-2,4-dihydropyrazolo[3′,4′:4,5]pyrrolo[3,2-b]pyridin-3-yl)propan-2-ol], the IC50 at BRD4 (BD1) was 6.8 nM; with MV-4-11, 63.3 nM.

As for `Cc1nnn(C)c1-c1cnc2c3nn(C)c(C(C)(C)O)c3n(C(c3ncccc3F)C3CCOCC3)c2c1` (racemic) [Example 10, 2-(6-(1,4-Dimethyl-1H-1,2,3-triazol-5-yl)-4-((3-fluoropyridin-2-yl)(tetrahydro-2H-pyran-4-yl)methyl)-2-methyl-2,4-dihydropyrazolo[3′,4′:4,5]pyrrolo[3,2-b]pyridin-3-yl)propan-2-ol], the IC50 at BRD4 (BD1) was found to be 0.61 nM; in the test on MV-4-11 (Homo sapiens, MV4-11, 72 h), 3.42 nM.

Consider `[2H]C([2H])([2H])c1nnn(C)c1-c1cnc2c3nn(C)c(C(C)(C)O)c3n(C(c3ncccc3F)C3CCOCC3)c2c1` (racemic) [Example 18, 2-(4-((3-Fluoropyridin-2-yl)(tetrahydro-2H-pyran-4-yl)methyl)-2-methyl-6-(1-methyl-4-(methyl-d3)-1H-1,2,3-triazol-5-yl)-2,4-dihydropyrazolo[3′,4′:4,5]pyrrolo[3,2-b]pyridin-3-yl)propan-2-ol], for which the figures for the IC50 at BRD4 (BD1) and in the test on MV-4-11 were 0.52 nM and 1.94 nM, respectively.

Turning to `[2H]C([2H])([2H])n1nc2c3ncc(-c4c(C)nnn4C)cc3n(C(c3ncccc3F)C3CCOCC3)c2c1C(C)(C)O` (single isomer, unassigned) [Example 16, 2-(6-(1,4-Dimethyl-1H-1,2,3-triazol-5-yl)-4-((3-fluoropyridin-2-yl)(tetrahydro-2H-pyran-4-yl)methyl)-2-(methyl-d3)-2,4-dihydropyrazolo[3′,4′:4,5]pyrrolo[3,2-b]pyridin-3-yl)propan-2-ol], the IC50 on BRD4 (BD1) came to 0.18 nM; in the test with MV-4-11, 0.49 nM.

Consider `[2H]C([2H])([2H])n1nc2c3ncc(-c4c(C)nnn4C)cc3n(C(c3ncccc3F)C3CCOCC3)c2c1C(C)(C)O` (single isomer, unassigned) [Example 15, 2-(6-(1,4-Dimethyl-1H-1,2,3-triazol-5-yl)-4-((3-fluoropyridin-2-yl)(tetrahydro-2H-pyran-4-yl)methyl)-2-(methyl-d3)-2,4-dihydropyrazolo[3′,4′:4,5]pyrrolo[3,2-b]pyridin-3-yl)propan-2-ol], for which the IC50 at BRD4 (BD1) amounted to 4.8 nM; with MV-4-11, 72.2 nM.

In the case of `[2H]C([2H])([2H])c1nnn(C)c1-c1cnc2c3nn(C)c(C(C)(C)O)c3n(C(c3ncccc3F)C3CCOCC3)c2c1` (single isomer, unassigned) [Example 20, 2-(4-((3-Fluoropyridin-2-yl)(tetrahydro-2H-pyran-4-yl)methyl)-2-methyl-6-(1-methyl-4-(methyl-d3)-1H-1,2,3-triazol-5-yl)-2,4-dihydropyrazolo[3′,4′:4,5]pyrrolo[3,2-b]pyridin-3-yl)propan-2-ol], the IC50 was found to be 0.17 nM at BRD4 (BD1) and 0.81 nM in the test on MV-4-11.

Take `Cc1nnn(C)c1-c1cnc2c3nn(C)c(C(C)(C)O)c3n(C(c3ccccc3)C3CCOCC3)c2c1` (single isomer, unassigned) [Example 3, 2-(6-(1,4-Dimethyl-1H-1,2,3-triazol-5-yl)-2-methyl-4-(phenyl(tetrahydro-2H-pyran-4-yl)methyl)-2,4-dihydropyrazolo[3′,4′:4,5]pyrrolo[3,2-b]pyridin-3-yl)propan-2-ol]: the IC50 was found to be 1.8 nM at BRD4 (BD1) and 36.9 nM in the test with MV-4-11.

Consider `Cc1nnn(C)c1-c1cnc2c3nn(C)c(C(C)(C)O)c3n([C@H](c3ccccn3)C3CCOCC3)c2c1` [Example 8], for which the IC50 on BRD4 (BD1) stood at 0.18 nM; with MV-4-11 (Homo sapiens, MV4-11, 72 h) it was 0.75 nM.
